Measurements from patent US9969989B2, “Carotenoid dioxygenase and methods for the biotechnological production in microorganisms and plants of compounds derived from saffron” (AGENZIA NAZIONALE PER LE NUOVE TECNOLOGIE, L'ENERGIA E LO …, priority 2014, dated 2018).

Assays:
[1] = molecular target: T1, ZCD (Crocus sativus, UniProt Q84K96); experiment: Corn endosperm transformed with 35S:ZCD, carotenoids and apocarotenoids by LC-HRMS; type: cell-based; conditions: for Relative content of carotenoids and apocarotenoids in corn endosperm: 35S: ZCD, peak areas of the ions standardised by the internal standard, mean ± SD of 4 biological repetitions
T1 construct: expressed in transfected cells; host or cells: corn (maize) endosperm, Agrobacterium tumefaciens-mediated transformation
T1 sequence (Q84K96 1-369): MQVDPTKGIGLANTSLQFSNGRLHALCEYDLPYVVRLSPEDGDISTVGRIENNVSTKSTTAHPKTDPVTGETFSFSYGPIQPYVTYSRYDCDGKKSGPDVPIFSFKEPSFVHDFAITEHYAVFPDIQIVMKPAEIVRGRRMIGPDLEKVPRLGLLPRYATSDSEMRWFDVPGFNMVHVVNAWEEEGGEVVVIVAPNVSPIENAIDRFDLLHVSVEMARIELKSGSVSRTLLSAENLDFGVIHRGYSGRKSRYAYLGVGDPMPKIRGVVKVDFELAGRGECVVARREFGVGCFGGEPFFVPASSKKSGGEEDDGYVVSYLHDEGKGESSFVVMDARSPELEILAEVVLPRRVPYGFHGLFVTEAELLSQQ
Description: (§1) RNA isolated from stigmas of saffron was sequenced by means of RNA-Seq 454 Titanium technology as reported in the literature (10) (FIG. 2A). The evolutionary relationships between the gene families CCD1 and CCD4 of saffron, Arabidopsis, rice and Synechocystis, were studied using the Neighbor-Joining method (11) (FIG. 2B), whilst the CCD proteins were modelled using the web server RaptorX (12) (FIG. 2C). The assays in bacteria were obtained by transforming particular strains of E. coli engineered to accumulate lycopene, β-carotene, and zeaxanthin, with the expression vectors pThio-DAN1-CCD2, pThio-DAN1-ZCD and pThio-DAN1 (empty vector, used as control) as indicated in the literature (13) (14) (15) (FIG. 3). The transformation of corn endosperm, in Agrobacterium tumefaciens-mediated manner, was obtained by cloning the coding sequence of CCD2 in the vector pBI121 (16) and by using protocols already present in the literature (17). The strain of E. coli BL21 (p-Gro7) was used to assay the activity in vitro of CCD2: the raw protein extracts were prepared and incubated with the appropriate substrates and extracts as described before (14) (FIG. 4). All the analyses directed to the identification and quantification of the carotenoids and apocarotenoids were performed using a mass spectrometry platform LTQ-Orbitrap coupled with a high-pressure liquid chromatography (HPLC) system and with a diode array detector (DAD) (ThermoFisher Scientific); the chromatographic separation was obtained using a C30 column with inverse phase, whereas for positive ionisation an APCI (Atmospheric Pressure Chemical Ionization) source was selected (18).
The sequences coding CCD2 and ZCD were cloned in the binary vector pBI121 under the control of the established promoter 35S. The vectors thus obtained were used to transform corn endosperm and cells of Arabidopsis thaliana, which contain zeaxanthin. […] Such a conversion is caused by the conversion of crocetin dialdehyde to crocetin in the corn endosperm (Table 1) and in the cells of Arabidopsis thaliana.

[2] = test system: CCD2; experiment: In vitro assay with semi-purified extracts of E. coli expressing CCD2, specificity for carotenoids; type: biochemical, Crocus sativus
Description: as §1
Since the strains of genetically modified E. coli can produce only a limited number of different carotenoids, we developed and used an in vitro assay, based on semi-purified extracts of E. coli that expresses CCD2, in order to study the specificity of this enzyme for the various carotenoids. […] 3-OH-β-apo-8′-carotenal, formed from CCD2 on the basis of the zeaxanthin in vitro, is then cleaved from the CCD2, with production of crocetin, signalling that the extracts of E. coli are able to convert the product of CCD2, crocetin dialdehyde, into crocetin.

[3] = test system: CCD2; experiment: CCD2 expressed in E. coli strains that accumulate lycopene, β-carotene or zeaxanthin; type: cell-based, Crocus sativus; conditions: E. coli strain accumulating the carotenoid, expression of CCD2
Description: as §1
(§2) The coding sequences of the genes CCD2 and ZCD were cloned in the vector pThio-DAN1, which allows an inducible expression in E. coli induced from arabinose. The recombinant proteins were expressed in three strains of E. coli that accumulate lycopene, β-carotene and zeaxanthin (FIG. 3A) (13) (14). […] A peak with the chromatographic and the m/z ratio (329.1747) typical of crocetin was also discernible.

[4] = molecular target: T1, ZCD; experiment: ZCD expressed in E. coli strains that accumulate lycopene, β-carotene or zeaxanthin; type: cell-based; conditions: E. coli strain accumulating the carotenoid, expression of ZCD
Description: as §1, §2

[5] = molecular target: T1, ZCD; experiment: In vitro assay with extracts of E. coli expressing ZCD, specificity for carotenoids; type: biochemical

Molecule	Relative content of carotenoids and apocarotenoids in corn endosperm [1]	Cleavage of the substrate in vitro [2]	Discoloration and cleavage product of the accumulated carotenoid [3]	Discoloration and cleavage product of the accumulated carotenoid [4]	other results
CC1=C[C@H](O)CC(C)(C)[C@H]1/C=C/C(C)=C/C=C/C(C)=C/C=C/C=C(C)/C=C/C=C(C)/C=C/C1=C(C)C[C@@H](O)CC1(C)C [Lutein]	0.64 ± 0.09				
CC1=C(/C=C/C(C)=C/C=C/C(C)=C/C=C/C=C(C)/C=C/C=C(\C)C=O)C(C)(C)CCC1 [β-apo-8′-carotenal]		does not cleave			
CC1=C(/C=C/C(C)=C/C=C/C(C)=C/C=C/C=C(C)/C=C/C=C(C)/C=C/C2=C(C)C[C@@H](O)CC2(C)C)C(C)(C)C[C@H](O)C1 [Zeaxanthin]	1.73 ± 0.20	cleaves	clear discoloration	did not produce any discoloration or any cleavage product	Cleavage product of zeaxanthin produced ([1]; corn endosperm expressing ZCD): No cleavage product; Cleavage of the substrate in vitro [5]: does not cleave
3-OH-β-apo-8′-carotenal		cleaved			
CC(/C=C/C=C(C)/C=C/[C@@]12O[C@]1(C)C[C@@H](O)CC2(C)C)=C\C=C\C=C(C)\C=C\C=C(C)\C=C\[C@@]12O[C@]1(C)C[C@@H](O)CC2(C)C [violaxanthin]		does not cleave			
CC(C)=CCC/C(C)=C/C=C/C(C)=C/C=C/C(C)=C/C=C/C=C(C)/C=C/C=C(C)/C=C/C=C(\C)CCC=C(C)C [lycopene]			no discoloration and no cleavage product	no discoloration and no cleavage product	
CC1=C(/C=C/C(C)=C/C=C/C(C)=C/C=C/C=C(C)/C=C/C=C(C)/C=C/C2=C(C)CCCC2(C)C)C(C)(C)CCC1 [β-carotene]		does not cleave	no discoloration and no cleavage product	no discoloration and no cleavage product	
CC1=C(/C=C/C(C)=C/C=C/C(C)=C/C=C/C=C(C)/C=C/C=C(C)/C=C/C2=C(C)C[C@@H](O)CC2(C)C)C(C)(C)CCC1 [β-cryptoxanthin]	0.12 ± 0.04				
